US11160764B2, “Drug delivery composition containing silyl polymers” (Medherant Limited, priority 2015, dated 2021)
In brackets after ≈: the same amount, converted by molar mass. Read-outs that look alike come from different tables or passages of the source.

Key:
[1] = cited from earlier work
[2] = Solubility of drugs in the adhesive compositions / patches
Protocol: Three different grades of composition were employed in solubility experiments: A, B and C (see below). A is the grade which was used for initial studies and further was used as the standard grade for solubility tests.
A sample of composition is pre-heated to 80° C. in a closed cartridge or inert environment to avoid contact with moisture and approximately 10 ml of the composition is added into a beaker and weighed. A desired quantity of drug, preservative and excipients are then added to the mixture. The mixture is mixed until it has been homogenised and is then cast with the help of a heated Meyer bar onto a release liner. Once cast, the layers of composition are cured at 60° C. in a humid environment during 16 hours.
In all experiments benzyl alcohol (BenzOH) was employed as a co-solvent. BenzOH is widely used in both pharmaceutical and cosmetic formulations as a preservative, and therefore its addition is required to improve the shelf life of patches. […] Additionally, it acts as a solvent for drugs improving their dissolution in the polymer matrix compositions. The total amount of BenzOH in all formulations was in a range of 1-3% w/w.
All compounds in the liquid state were added by volume, which was estimated using their specific densities.

[3] = Drug release analysis: permeation from patch across Pion membrane in Franz cell; conditions: patch of the invention, PBS pH 7.4
Protocol: The membrane and patch are then placed in a Franz cell and then a PBS pH 7.4 buffer solution is added. Samples are taken at one hour interval for 8 hours. The amount of drug released is calculated using a validated HPLC/UV-Vis method depending on the drug in question.

## C[C@@H]1CC[C@H]2[C@@H](C)C(=O)O[C@@H]3O[C@@]4(C)CC[C@@H]1[C@]32OO4 [Artemisinin]
[1]
  Solubility in water: insoluble
[2]
  Max. mass fraction: 9%
  Sol. type: Molecular
  Soluble in A: ✓

## C[C@H]1[C@H](OC(=O)CCC(=O)O)O[C@@H]2O[C@@]3(C)CC[C@H]4[C@H](C)CC[C@@H]1[C@@]24OO3 [Artesunate]
[1]
  Solubility in water: 56 µg/mL (≈ 146 µM)
[2]
  Max. mass fraction: 6%
  Sol. type: Molecular
  Soluble in A: ✓

## CC(=O)Oc1ccccc1C(=O)O [Aspirin]
[2]
  Sol. type: Dispersion

## Cn1c(=O)c2c(ncn2C)n(C)c1=O [Caffeine]
[3]; sample 1 hours
  Permeated drug amount: 0.19 μg cm^−2
[3]; sample 2 hours
  Permeated drug amount: 2.33 μg cm^−2
[3]; sample 4 hours
  Permeated drug amount: 3.26 μg cm^−2
[3]; sample 6 hours
  Permeated drug amount: 21.89 μg cm^−2

## [H]/N=C(\N/C(=N/[H])NCCCCCCNC(=N)NC(=N)Nc1ccc(Cl)cc1)Nc1ccc(Cl)cc1 [Chlorhexidine]
[2]
  Sol. type: Molecular
[2]; Medherant patches / compositions of the invention
  Solubility in compositions and patches of the invention: ~3.5 % w/w
[2]; grade A composition (Table 5)
  Max. mass fraction: 3.5%
  Soluble in A: ✓

## Cc1ccc2c(Cl)cc(Cl)c(O)c2n1 [Chlorquinaldol]
[1]
  Solubility in water: insoluble
[2]; grade A composition (Table 5)
  Max. mass fraction: 15%
  Sol. type: Molecular
  Soluble in A: ✓
[2]; grades of the compositions of the invention
  Solubility in compositions and patches of the invention, in words: good dissolution
[2]; patches of the invention
  Concentration / mass fraction in patches can be increased up to: up to 15 % w/w

## O=C(O)Cc1ccccc1Nc1c(Cl)cccc1Cl [Diclofenac]
[3]; sample 1 hours
  Permeated drug amount: 0.11 μg cm^−2
[3]; sample 2 hours
  Permeated drug amount: 0.16 μg cm^−2
[3]; sample 4 hours
  Permeated drug amount: 0.39 μg cm^−2
[3]; sample 6 hours
  Permeated drug amount: 0.47 μg cm^−2

## CC(C(=O)O)c1ccc(-c2ccccc2)c(F)c1 (stereo not drawn) [Flurbiprofen]
[1]
  Solubility in water: 25 µg/mL (≈ 102 µM)
[2]
  Sol. type: Molecular
[2]; grade A composition
  Conc., wt %: >5 wt %
  Solubility of analgesic drugs in compositions: A: ✓
[2]; grade A composition (Table 5)
  Max. mass fraction: 15%
  Soluble in A: ✓
[2]; grade B composition
  Conc., wt %: >5 wt %
  Solubility of analgesic drugs in compositions: B: ✓

## CC(C)Cc1ccc(C(C)C(=O)O)cc1 (stereo not drawn) [Ibuprofen]
[3]; sample 1 hours
  Permeated drug amount: 15.46 μg cm^−2
[3]; sample 2 hours
  Permeated drug amount: 37.23 μg cm^−2
[3]; sample 4 hours
  Permeated drug amount: 73.85 μg cm^−2
[3]; sample 6 hours
  Permeated drug amount: 99.60 μg cm^−2

## COc1ccc2c(c1)c(CC(=O)O)c(C)n2C(=O)c1ccc(Cl)cc1 [Indomethacin]
[1]
  Solubility in water: 2 µg/mL (≈ 5.59 µM)
[2]
  Conc., wt %: >5 wt %
  Max. mass fraction: 10%
  Sol. type: Molecular
  Solubility of analgesic drugs in compositions: A: ✓
  Solubility of analgesic drugs in compositions: B: ✓
  Soluble in A: ✓

## CC(C(=O)O)c1cccc(C(=O)c2ccccc2)c1 (stereo not drawn) [Ketoprofen]
[3]; sample 1 hours
  Permeated drug amount: 0.90 μg cm^−2
[3]; sample 2 hours
  Permeated drug amount: 4.59 μg cm^−2
[3]; sample 4 hours
  Permeated drug amount: 17.37 μg cm^−2
[3]; sample 6 hours
  Permeated drug amount: 35.67 μg cm^−2

## CC(C)[C@@H]1CC[C@@H](C)C[C@H]1O [Levomenthol]
[2]
  Conc., wt %: >5 wt %
  Max. mass fraction: 30%

## CN(Cc1cnc2nc(N)nc(N)c2n1)c1ccc(C(=O)N[C@@H](CCC(=O)O)C(=O)O)cc1 [Methotrexate]
[1]
  Solubility in water: insoluble
[2]
  Sol. type: Molecular
[2]; grade A composition (Table 5)
  Max. mass fraction: 7%
  Soluble in A: ✓

## COC(=O)c1ccccc1O [Methyl salicylate]
[3]; sample 1 hours
  Permeated drug amount: 18.25 μg cm^−2
[3]; sample 2 hours
  Permeated drug amount: 24.58 μg cm^−2
[3]; sample 4 hours
  Permeated drug amount: 59.78 μg cm^−2
[3]; sample 6 hours
  Permeated drug amount: 83.03 μg cm^−2
[1]
  Solubility in water: 690 µg/mL (≈ 4540 µM)
[2]
  Sol. type: Molecular
[2]; adhesive grade F15
  Solubility in adhesive F15: ✓
[2]; adhesive grade F16
  Solubility in adhesive F16: ✓
[2]; adhesive grade F17
  Solubility in adhesive F17: ✓
[2]; grade A composition
  Conc., wt %: >5 wt %
  Solubility of analgesic drugs in compositions: A: ✓
[2]; grade A composition (Table 5)
  Max. mass fraction: 30%
  Soluble in A: ✓
[2]; grade B composition
  Conc., wt %: >5 wt %
  Solubility of analgesic drugs in compositions: B: ✓
[2]; grades A, B and C
  Drug solubility compared between all three grades: identical
[2]; standard grade (A)
  Solubility in the standard grade (A) composition, in words: readily soluble

## CN1CCCC1c1cccnc1 (stereo not drawn) [Nicotine]
[3]; sample 1 hours
  Permeated drug amount: 2.26 μg cm^−2
[3]; sample 2 hours
  Permeated drug amount: 5.05 μg cm^−2
[3]; sample 4 hours
  Permeated drug amount: 13.76 μg cm^−2
[3]; sample 6 hours
  Permeated drug amount: 18.33 μg cm^−2
[2]
  Concentration / mass fraction in patches can be increased up to: up to 30 % w/w
  Max. mass fraction: 30%
  Sol. type: Molecular
  Solubility in compositions and patches of the invention, in words: freely soluble
  Soluble in A: ✓

## C[C@@H]1[C@H](O)[C@@H](C)/C=C/C=C/CC/C=C/C=C/C=C/C=C/C(O[C@H]2O[C@H](C)[C@@H](O)[C@H](N)[C@@H]2O)CC2O[C@](O)(CC(O)C(O)CCC(O)CC(O)CC(O)CC(=O)O[C@H]1C)CC(O)C2C(=O)O (stereo partly drawn) [Nystatin]
[2]; grade A composition (Table 5)
  Sol. type: Molecular
  Soluble in A: ✓

## CC1(C)S[C@@H]2[C@H](NC(=O)Cc3ccccc3)C(=O)N2[C@H]1C(=O)O [Penicillin G]
[2]; grade A composition (Table 5)
  Sol. type: Dispersion

## CN1C(C(=O)Nc2ccccn2)=C(O)c2ccccc2S1(=O)=O [Piroxicam]
[2]
  Sol. type: Molecular
[2]; grade A composition
  Conc., wt %: ~2.5 wt %
  Solubility of analgesic drugs in compositions: A: ✓
[2]; grade A composition (Table 5)
  Max. mass fraction: 2.5%
  Soluble in A: ✓
[2]; grade B composition
  Conc., wt %: ~2.5 wt %
  Solubility of analgesic drugs in compositions: B: ✓
[2]; standard grade (A)
  Limited solubility: ~2.5 % w/w

## CCCN[C@H]1CCc2nc(N)sc2C1 [Pramipexole]
[1]
  Solubility in water: 3900 µg/mL (≈ 18500 µM)
[2]
  Sol. type: Dispersion

## O=C(C1CCCCC1)N1CC(=O)N2CCc3ccccc3C2C1 (stereo not drawn) [Praziquantel]
[2]
  Max. mass fraction: 10%
  Sol. type: Molecular
  Soluble in A: ✓

## C[C@]12C=CC(=O)C=C1CC[C@@H]1[C@@H]2[C@@H](O)C[C@@]2(C)[C@H]1CC[C@]2(O)C(=O)CO [Prednisolone]
[2]; grade A composition (Table 5)
  Sol. type: Dispersion

## CCCNC(C)C(=O)Nc1ccccc1C (stereo not drawn) [Prilocaine]
[1]
  Solubility in water: 540 µg/mL (≈ 2450 µM)
[2]
  Distribution of the drug in the patch: uniformly distributed in the patch in a form of micro particles
  Sol. type: Dispersion
  Solubility in the standard grade (A) composition, in words: poor solubility

## CC(=O)[C@H]1CC[C@H]2[C@@H]3CCC4=CC(=O)CC[C@]4(C)[C@H]3CC[C@]12C [Progesterone]
[1]
  Solubility in water: 9 µg/mL (≈ 28.6 µM)
[2]
  Max. mass fraction: 15%
  Sol. type: Molecular
  Soluble in A: ✓

## CC(C)(C)NCC(O)c1ccc(O)c(CO)c1 (stereo not drawn) [Salbutamol]
[2]
  Max. mass fraction: 5%
  Sol. type: Molecular
  Soluble in A: ✓

## O=C(O)c1ccccc1O [Salicylic acid]
[3]; sample 1 hours
  Permeated drug amount: 3.38 μg cm^−2
[3]; sample 2 hours
  Permeated drug amount: 11.92 μg cm^−2
[3]; sample 4 hours
  Permeated drug amount: 31.75 μg cm^−2
[3]; sample 6 hours
  Permeated drug amount: 54.71 μg cm^−2
[2]
  Conc., wt %: >5 wt %
  Max. mass fraction: 30%
  Sol. type: Molecular
  Solubility in the standard grade (A) composition, in words: readily soluble
  Solubility of analgesic drugs in compositions: A: ✓
  Solubility of analgesic drugs in compositions: B: ✓
  Soluble in A: ✓

## O=C(Oc1ccccc1C(=O)O)c1ccccc1O [Salsalate]
[1]
  Solubility in water: 246 µg/mL (≈ 953 µM)
[2]
  Conc., wt %: >5 wt %
  Max. mass fraction: 10%
  Sol. type: Molecular
  Solubility of analgesic drugs in compositions: A: ✓
  Solubility of analgesic drugs in compositions: B: ✓
  Soluble in A: ✓

## C[C@]12CC[C@H]3[C@@H](CCC4=CC(=O)CC[C@@]43C)[C@@H]1CC[C@@H]2O [Testosterone]
[2]; grade A composition (Table 5)
  Max. mass fraction: 5%
  Sol. type: Molecular
  Soluble in A: ✓

## COc1cc(Cc2cnc(N)nc2N)cc(OC)c1OC [Trimethoprim]
[2]
  Sol. type: Dispersion

## Ivermectin
[2]; grade A composition (Table 5)
  Max. mass fraction: 5%
  Sol. type: Molecular
  Soluble in A: ✓
